Experiment [1] has as its target Serine/threonine-protein kinase N3 (Homo sapiens, UniProt Q6P5Z2).
The target in experiment [2] is T1, Protein kinase C zeta type (Homo sapiens, UniProt Q05513).
T1 sequence (Q05513 whole entry): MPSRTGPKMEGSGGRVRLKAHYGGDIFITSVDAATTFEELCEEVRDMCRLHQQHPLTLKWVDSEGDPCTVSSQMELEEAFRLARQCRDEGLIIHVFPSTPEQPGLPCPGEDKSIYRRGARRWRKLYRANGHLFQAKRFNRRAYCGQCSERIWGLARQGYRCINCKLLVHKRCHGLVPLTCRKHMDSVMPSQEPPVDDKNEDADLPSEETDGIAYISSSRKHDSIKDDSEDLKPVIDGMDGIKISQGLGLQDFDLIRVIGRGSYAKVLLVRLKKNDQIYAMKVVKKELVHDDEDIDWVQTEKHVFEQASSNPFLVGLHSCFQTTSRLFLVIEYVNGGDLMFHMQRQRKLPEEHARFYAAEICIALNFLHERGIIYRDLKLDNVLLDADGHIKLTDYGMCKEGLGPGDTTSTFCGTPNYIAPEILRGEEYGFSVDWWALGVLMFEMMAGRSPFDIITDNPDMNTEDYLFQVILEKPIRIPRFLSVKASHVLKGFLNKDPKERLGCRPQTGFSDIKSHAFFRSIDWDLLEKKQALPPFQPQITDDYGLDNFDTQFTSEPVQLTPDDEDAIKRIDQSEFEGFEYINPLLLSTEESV

Experiment [3] has as its target T2, MAP/microtubule affinity-regulating kinase 4 (Homo sapiens, UniProt Q96L34).
T2 sequence (Q96L34 whole entry): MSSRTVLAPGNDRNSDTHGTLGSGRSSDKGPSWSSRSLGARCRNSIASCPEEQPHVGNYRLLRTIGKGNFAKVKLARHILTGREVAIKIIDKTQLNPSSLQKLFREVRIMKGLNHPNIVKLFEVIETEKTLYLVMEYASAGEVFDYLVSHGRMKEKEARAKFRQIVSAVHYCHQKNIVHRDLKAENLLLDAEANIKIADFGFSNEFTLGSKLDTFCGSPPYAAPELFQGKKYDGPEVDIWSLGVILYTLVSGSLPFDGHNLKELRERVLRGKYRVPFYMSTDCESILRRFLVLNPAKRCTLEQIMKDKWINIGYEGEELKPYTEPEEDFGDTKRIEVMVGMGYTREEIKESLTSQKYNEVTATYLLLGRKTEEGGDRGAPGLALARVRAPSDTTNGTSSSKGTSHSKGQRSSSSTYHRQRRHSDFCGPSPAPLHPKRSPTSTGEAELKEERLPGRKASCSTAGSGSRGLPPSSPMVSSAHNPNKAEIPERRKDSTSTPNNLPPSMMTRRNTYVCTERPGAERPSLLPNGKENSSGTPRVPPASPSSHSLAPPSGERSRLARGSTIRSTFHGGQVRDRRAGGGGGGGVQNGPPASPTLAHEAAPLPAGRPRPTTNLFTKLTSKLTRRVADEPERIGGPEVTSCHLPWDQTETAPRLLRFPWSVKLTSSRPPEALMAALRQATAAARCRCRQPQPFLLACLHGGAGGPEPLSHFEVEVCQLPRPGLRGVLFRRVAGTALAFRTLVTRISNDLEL

The target of experiment [4] is Dual specificity testis-specific protein kinase 2 (Homo sapiens, UniProt Q96S53).
Experiment [5] concerns the target T3, Dual specificity protein kinase TTK (Homo sapiens, UniProt P33981).
T3 sequence (P33981 whole entry): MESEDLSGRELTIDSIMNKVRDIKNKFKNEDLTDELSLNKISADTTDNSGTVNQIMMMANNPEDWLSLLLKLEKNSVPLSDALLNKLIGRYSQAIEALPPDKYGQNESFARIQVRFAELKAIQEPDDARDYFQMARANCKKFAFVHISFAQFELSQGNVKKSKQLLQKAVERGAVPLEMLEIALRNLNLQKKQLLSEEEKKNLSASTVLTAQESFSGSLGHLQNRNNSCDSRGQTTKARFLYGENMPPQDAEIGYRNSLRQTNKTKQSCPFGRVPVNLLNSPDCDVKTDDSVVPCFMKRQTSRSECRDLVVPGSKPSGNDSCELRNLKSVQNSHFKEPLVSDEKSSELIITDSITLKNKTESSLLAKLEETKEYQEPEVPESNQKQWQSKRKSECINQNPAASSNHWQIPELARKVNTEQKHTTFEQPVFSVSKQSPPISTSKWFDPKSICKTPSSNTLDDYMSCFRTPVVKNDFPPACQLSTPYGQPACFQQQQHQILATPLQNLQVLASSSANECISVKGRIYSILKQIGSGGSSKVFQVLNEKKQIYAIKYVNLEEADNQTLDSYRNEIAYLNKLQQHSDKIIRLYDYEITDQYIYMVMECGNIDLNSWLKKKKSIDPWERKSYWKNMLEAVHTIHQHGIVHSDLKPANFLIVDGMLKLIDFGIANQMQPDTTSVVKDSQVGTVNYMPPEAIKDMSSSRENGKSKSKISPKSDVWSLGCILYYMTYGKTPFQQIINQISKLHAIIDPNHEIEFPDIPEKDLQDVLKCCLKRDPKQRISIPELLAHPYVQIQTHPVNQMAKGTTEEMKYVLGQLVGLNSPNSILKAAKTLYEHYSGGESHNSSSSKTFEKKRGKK

For experiment [6], the target named is Serine/threonine-protein kinase PAK 6 (Homo sapiens, UniProt Q9NQU5).
Experiment [7] addresses Myosin-10 (Homo sapiens, UniProt P35580).

The source made the active and inactive calls. Bounds are passed on as bounds.
Further: in the data inactive means no Kd found up to 30 µM.

Serine/threonine-protein kinase PAK 6, sequence (Q9NQU5 whole entry): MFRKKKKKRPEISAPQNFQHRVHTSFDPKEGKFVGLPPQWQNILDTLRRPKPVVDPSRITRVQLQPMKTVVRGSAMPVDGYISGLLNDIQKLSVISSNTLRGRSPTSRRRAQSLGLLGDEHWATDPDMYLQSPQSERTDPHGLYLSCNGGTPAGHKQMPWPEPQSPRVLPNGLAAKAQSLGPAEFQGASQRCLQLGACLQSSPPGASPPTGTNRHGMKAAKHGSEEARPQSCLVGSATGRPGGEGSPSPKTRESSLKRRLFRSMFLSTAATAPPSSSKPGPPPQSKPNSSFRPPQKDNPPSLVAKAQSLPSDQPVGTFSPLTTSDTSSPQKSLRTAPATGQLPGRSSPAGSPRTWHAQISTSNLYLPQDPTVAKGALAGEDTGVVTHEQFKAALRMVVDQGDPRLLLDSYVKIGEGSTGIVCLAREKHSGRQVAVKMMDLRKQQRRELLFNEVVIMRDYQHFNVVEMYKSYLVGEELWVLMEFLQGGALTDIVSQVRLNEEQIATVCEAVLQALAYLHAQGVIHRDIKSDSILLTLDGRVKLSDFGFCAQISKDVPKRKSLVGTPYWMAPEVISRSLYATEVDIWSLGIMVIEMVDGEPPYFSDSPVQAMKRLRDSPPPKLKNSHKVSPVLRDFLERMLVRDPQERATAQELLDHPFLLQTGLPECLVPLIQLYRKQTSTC
Myosin-10, sequence (P35580 whole entry): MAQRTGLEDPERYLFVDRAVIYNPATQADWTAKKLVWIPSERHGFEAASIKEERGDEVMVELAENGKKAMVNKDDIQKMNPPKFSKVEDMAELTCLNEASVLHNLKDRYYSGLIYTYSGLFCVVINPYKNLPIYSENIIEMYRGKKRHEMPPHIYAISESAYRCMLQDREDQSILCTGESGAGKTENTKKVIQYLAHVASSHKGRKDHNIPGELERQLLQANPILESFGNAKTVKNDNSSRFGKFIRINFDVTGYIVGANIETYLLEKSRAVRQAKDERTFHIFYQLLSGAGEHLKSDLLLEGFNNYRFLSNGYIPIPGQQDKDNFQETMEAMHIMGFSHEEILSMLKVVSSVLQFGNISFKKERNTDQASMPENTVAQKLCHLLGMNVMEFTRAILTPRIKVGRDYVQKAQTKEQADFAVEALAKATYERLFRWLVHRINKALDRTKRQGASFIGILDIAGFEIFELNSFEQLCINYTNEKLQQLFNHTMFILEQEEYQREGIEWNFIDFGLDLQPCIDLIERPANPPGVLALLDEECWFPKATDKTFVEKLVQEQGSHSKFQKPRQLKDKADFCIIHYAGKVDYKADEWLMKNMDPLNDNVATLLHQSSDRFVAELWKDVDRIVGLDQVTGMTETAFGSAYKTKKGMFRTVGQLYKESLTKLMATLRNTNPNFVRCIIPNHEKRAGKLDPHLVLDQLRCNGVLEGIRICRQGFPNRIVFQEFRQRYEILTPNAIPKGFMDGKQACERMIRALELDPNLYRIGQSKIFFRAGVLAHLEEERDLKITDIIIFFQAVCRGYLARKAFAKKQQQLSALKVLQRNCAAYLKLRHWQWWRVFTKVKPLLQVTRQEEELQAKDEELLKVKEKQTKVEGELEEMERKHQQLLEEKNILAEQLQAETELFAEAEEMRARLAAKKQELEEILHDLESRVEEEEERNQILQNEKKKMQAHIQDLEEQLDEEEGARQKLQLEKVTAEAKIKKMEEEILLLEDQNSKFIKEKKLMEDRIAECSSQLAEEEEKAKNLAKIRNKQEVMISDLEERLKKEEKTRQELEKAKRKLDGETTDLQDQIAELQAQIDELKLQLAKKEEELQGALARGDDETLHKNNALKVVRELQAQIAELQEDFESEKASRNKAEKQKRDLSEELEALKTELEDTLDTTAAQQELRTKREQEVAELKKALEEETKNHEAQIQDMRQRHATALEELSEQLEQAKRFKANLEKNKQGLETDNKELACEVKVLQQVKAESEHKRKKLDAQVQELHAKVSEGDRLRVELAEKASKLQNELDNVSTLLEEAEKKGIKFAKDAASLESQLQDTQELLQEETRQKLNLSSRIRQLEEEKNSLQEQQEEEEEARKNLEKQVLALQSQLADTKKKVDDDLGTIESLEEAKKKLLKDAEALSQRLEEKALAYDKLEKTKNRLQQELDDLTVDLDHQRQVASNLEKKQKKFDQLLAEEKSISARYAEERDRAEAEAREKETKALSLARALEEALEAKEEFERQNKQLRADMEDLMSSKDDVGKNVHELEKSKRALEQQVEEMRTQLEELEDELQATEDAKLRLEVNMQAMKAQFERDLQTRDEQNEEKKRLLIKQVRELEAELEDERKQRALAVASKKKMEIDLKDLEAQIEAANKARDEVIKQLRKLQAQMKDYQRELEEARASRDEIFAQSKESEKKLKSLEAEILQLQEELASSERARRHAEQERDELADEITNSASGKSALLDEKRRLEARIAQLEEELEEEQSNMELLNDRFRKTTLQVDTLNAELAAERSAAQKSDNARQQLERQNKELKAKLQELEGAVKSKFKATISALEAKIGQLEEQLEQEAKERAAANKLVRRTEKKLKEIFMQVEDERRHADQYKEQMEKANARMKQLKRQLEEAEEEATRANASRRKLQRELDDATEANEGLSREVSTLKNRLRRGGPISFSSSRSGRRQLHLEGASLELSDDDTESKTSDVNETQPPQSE
Dual specificity testis-specific protein kinase 2, sequence (Q96S53 whole entry): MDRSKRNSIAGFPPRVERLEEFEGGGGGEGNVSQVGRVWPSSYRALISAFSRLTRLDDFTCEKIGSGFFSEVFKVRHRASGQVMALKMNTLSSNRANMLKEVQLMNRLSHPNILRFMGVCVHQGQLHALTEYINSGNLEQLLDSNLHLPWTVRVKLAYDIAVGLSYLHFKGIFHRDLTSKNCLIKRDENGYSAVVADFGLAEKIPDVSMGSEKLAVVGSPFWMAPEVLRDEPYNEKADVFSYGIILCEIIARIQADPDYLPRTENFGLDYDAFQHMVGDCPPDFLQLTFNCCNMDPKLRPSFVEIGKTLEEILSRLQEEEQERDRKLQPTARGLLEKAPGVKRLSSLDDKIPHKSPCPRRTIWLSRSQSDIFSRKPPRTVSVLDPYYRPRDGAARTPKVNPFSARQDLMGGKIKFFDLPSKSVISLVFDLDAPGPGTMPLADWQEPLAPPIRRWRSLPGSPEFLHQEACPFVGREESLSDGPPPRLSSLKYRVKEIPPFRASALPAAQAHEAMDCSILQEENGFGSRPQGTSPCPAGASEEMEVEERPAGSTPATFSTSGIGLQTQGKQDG
Serine/threonine-protein kinase N3, sequence (Q6P5Z2 whole entry): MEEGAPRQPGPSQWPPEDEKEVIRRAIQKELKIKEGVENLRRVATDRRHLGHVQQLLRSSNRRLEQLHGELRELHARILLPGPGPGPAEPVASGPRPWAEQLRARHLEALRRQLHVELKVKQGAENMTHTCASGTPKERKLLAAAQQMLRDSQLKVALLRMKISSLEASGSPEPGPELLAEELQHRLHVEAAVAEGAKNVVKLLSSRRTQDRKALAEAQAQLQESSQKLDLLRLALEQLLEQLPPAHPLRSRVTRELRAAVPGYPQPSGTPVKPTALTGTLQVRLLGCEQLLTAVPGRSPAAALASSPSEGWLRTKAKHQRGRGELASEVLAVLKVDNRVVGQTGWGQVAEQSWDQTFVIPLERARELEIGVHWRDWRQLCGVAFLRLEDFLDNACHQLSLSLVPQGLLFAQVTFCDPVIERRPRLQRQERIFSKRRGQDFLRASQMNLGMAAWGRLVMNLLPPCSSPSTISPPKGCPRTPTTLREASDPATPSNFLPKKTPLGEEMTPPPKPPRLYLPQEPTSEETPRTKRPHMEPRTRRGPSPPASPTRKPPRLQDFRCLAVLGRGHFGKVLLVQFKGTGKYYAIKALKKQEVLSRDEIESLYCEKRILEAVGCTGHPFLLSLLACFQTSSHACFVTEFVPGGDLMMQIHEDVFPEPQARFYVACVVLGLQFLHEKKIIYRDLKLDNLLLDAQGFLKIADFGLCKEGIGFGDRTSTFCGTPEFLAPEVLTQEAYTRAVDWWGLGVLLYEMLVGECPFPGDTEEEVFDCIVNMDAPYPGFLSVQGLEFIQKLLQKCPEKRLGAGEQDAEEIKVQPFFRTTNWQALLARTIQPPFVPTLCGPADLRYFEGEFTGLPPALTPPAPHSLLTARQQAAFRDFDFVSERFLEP

Turning to `C=CCn1c(=O)c2cnc(Nc3ccc(N4CCN(C)CC4)cc3)nc2n1-c1cccc(C(C)(C)O)n1` [ADAVOSERTIB], the Kd in experiment [1], in experiment [2], in experiment [3], in experiment [4], in experiment [5] and in experiment [6] was > 30 µM (inactive) each time.

With `O[C@H]1CC[C@H](Nc2ncc3nc(Nc4c(F)cc(F)cc4F)n([C@H]4CCOC4)c3n2)CC1` [TANZISERTIB], the Kd in experiment [1], in experiment [2], in experiment [3], in experiment [5] and in experiment [6] was > 30 µM (inactive) in each case.

Take `CC1(COc2ccc3c(c2)ncn3-c2ccc3cccc(N4CCC(N)CC4)c3n2)COC1` [CRENOLANIB]: the Kd (as a rule, a measure of binding affinity in units of concentration) in experiment [1] is > 30 µM (inactive); in experiment [2] it was > 30 µM (inactive); in experiment [3], 0.025 µM (active); in experiment [4], > 30 µM (inactive); in experiment [7], > 30 µM (inactive); in experiment [6], > 30 µM (inactive).

Consider `O=C(Nc1ccc(OC(F)(F)F)cc1)c1sccc1NCc1ccnc2ccccc12` [OSI-930], for which the Kd in experiment [1], in experiment [2], in experiment [3], in experiment [4], in experiment [5] and in experiment [7] was > 30 µM (inactive) each time. Also, in experiment [6], the Kd was > 30 µM (inactive).

As to `Cn1cc(-c2[nH]c3cc(NC(=O)[C@H](N)C4CCCCC4)cc4c3c2C=NNC4=O)cn1`, the Kd was > 30 µM (inactive) in experiment [1]; > 30 µM (inactive) in experiment [2]; 0.036 µM in experiment [3]; > 30 µM (inactive) in experiment [4]; > 30 µM (inactive) in experiment [5]; > 30 µM (inactive) in experiment [7]. The affinity in experiment [6], expressed as Kd, was 0.019 µM.

Regarding `O=C(NC[C@H](O)CO)c1ccncc1Nc1ccc(I)cc1F` [PIMASERTIB], the Kd in experiment [1] was > 30 µM (inactive); in experiment [2] it was 10.4 µM; in experiment [3], > 30 µM (inactive); in experiment [4], > 30 µM (inactive); in experiment [5] it was > 30 µM (inactive); in experiment [7] it was > 30 µM (inactive). The Kd in experiment [6] was > 30 µM (inactive).

As for `CCc1cc2c(cc1N1CCC(N3CCOCC3)CC1)C(C)(C)c1[nH]c3cc(C#N)ccc3c1C2=O` [ALECTINIB], the Kd in experiment [1], in experiment [2], in experiment [3], in experiment [4], in experiment [5] and in experiment [7] was > 30 µM (inactive) each time. In experiment [6], the Kd is > 30 µM (inactive).

As to `Cn1c(=O)n(-c2ccc(C(C)(C)C#N)cc2)c2c3cc(-c4cnc5ccccc5c4)ccc3ncc21` [DACTOLISIB], the Kd in experiment [1], in experiment [2], in experiment [3], in experiment [5], in experiment [7] and in experiment [6] was > 30 µM (inactive) each time.

In the case of `COc1cc2nccc(Oc3ccc(NC(=O)C4(C(=O)Nc5ccc(F)cc5)CC4)cc3)c2cc1OC` [CABOZANTINIB], the Kd in experiment [2], in experiment [3], in experiment [5], in experiment [7] and in experiment [6] was > 30 µM (inactive) each time.

The values above are taken from ChEMBL document CHEMBL3991601, “The target landscape of clinical kinase drugs” (Science, 2017).
